For one experiment, the target named is T1, lipoxygenase (Rattus norvegicus, UniProt P12527).
T1 construct: Polymorphonuclear leucocytes from rats (PMNL) were obtained from the peritoneal space in Wistar rats; endogenous in cells; host or cells: peritoneal polymorphonuclear leucocytes of Wistar rats (elicited with sodium caseinate)
T1 sequence (P12527 1-673): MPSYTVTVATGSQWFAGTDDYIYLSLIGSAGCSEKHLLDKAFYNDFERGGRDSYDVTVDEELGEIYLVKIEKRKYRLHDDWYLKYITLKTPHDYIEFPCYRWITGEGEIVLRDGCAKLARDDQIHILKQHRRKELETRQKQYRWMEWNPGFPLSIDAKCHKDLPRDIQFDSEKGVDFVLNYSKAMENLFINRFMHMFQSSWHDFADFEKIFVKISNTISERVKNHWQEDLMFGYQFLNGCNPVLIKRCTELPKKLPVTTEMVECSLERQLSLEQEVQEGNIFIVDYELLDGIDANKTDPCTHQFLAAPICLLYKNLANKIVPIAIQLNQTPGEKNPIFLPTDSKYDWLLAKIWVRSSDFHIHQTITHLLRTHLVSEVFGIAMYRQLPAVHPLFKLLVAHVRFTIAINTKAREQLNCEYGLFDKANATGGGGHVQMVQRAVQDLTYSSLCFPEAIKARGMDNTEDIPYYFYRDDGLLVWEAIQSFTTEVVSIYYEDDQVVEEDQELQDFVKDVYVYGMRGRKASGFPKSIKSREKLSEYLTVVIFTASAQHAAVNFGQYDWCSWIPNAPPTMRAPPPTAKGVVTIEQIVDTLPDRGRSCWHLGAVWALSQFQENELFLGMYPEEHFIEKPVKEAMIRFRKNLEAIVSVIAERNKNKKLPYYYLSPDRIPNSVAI
In words: LTB4 release from rat polymorphonuclear leucocytes (PMNL) after calcium ionophore A 23187, by HPLC (lipoxygenase inhibition). It counts as cell-based, rat (Wistar). The protocol:
The release of LTB4 on polymorphonuclear granulocytes after addition of substances and calcium ionophor was determined by means of HPLC as a measure of the lipoxygenase inhibition.
The combined ether phases were washed with 4 ml of water (double distilled), dried while gassing with nitrogen and taken up in 80 μl of methanol.
20 μl of each of the samples thus prepared were applied to a pre-packed column (Nucleosil, type 7.5 C 18M 4×25 mm) and chromatographed at a flow rate of 1 ml/min (Kontron pump system 600), methanol, H2 O and acetic acid (75:25:0.01) being used as the mobile phase. Detection was at 280 nm (Uvicon 720 LC). The formation of the metabolite was quantified with the aid of the internal standard PG B2 as a quotient of the area integrals (Shimadzu C-R1B) of LTB4 to PGB2 and an inhibition was determined as a percentage of the controls.

In another experiment the test system is leucocyte migration. In words: Inhibition of leucocyte migration, small sponge impregnated with active compound under the skin on the backs of rats. The format is in vivo. The following applies: rat, local, 10 mg/rat, impregnated sponge under skin of back. The source says: The 1H-pyrido-[2,3-b][1,4]-thiazines according to the invention also have an in vivo action.
The action of a 1H-pyrido-[2,3-b][1,4]-thiazine after local administration by insertion of a small sponge impregnated with active compound under the skin on the backs of rats may be mentioned as examples.

In the case of `O=C1CCCC2=C1Sc1ncccc1N2`, on lipoxygenase (at 1·10^-5 (M/1), rat PMNL), the “Inhibition of leukotriene B4 biosynthesis, % inhibition” value amounted to 42%.

Regarding `CCOC(=O)C1=CNc2cccnc2S1` [Example 1, 3-Ethoxycarbonyl-1H-pyrido[2,3-b][1,4]-thiazine], in the experiment with leucocyte migration, the “Inhibition of Leucocyte migration (control = 0%)” value is reported as 50%. Also, the IC50 (as a rule, the concentration needed to halve the response being measured) at lipoxygenase was 0.46 µM.

Turning to `COC(=O)C1=CNc2cccnc2S1` [Example 2], the IC50 on lipoxygenase was found to be 5 µM.

Consider `CCCCOC(=O)C1=CNc2cccnc2S1` [Example 4], for which the half-inhibitory concentration (IC50) on lipoxygenase is 0.055 µM.

Regarding `CCOC(=O)C1=CN(CC#N)c2cccnc2S1` [Example 19], on lipoxygenase, the IC50 is 2.6 µM.

The values above are taken from patent US4861878A, “1H-pyrido-(2,3-b) (1,4)-thiazines” (Bayer Aktiengesellschaft, priority 1985, dated 1989).
